PubChem BioAssay (NCI)
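Exposure lasted 48 hours, with cells grown in 96-well plates and compounds tested at five concentrations. At the TGI there is no net growth.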

Legend:
Assay in all cases: DTP human tumour cell line panel, 48 h
[1] = system: 786-0 renal
[2] = system: A498 renal
[3] = system: A549 NSCLC
[4] = system: ACHN renal
[5] = system: BT-549 breast
[6] = system: CAKI-1 renal
[7] = system: CCRF-CEM leukemia
[8] = system: COLO 205 colon
[9] = system: DU-145 prostate
[10] = system: EKVX NSCLC
[11] = system: HCT-116 colon
[12] = system: HCT-15 colon
[13] = system: HL-60(TB) leukemia
[14] = system: HOP-62 NSCLC
[15] = system: HOP-92 NSCLC
[16] = system: HS 578T breast
[17] = system: HT29 colon
[18] = system: IGROV1 ovarian
[19] = system: K-562 leukemia
[20] = system: KM12 colon
[21] = system: LOX IMVI melanoma
[22] = system: M14 melanoma
[23] = system: MCF7 breast
[24] = system: MDA-MB-231 breast
[25] = system: MDA-MB-435
[26] = system: MDA-N
[27] = system: MOLT-4 leukemia
[28] = system: NCI-H226 lung
[29] = system: NCI-H23 lung
[30] = system: NCI-H460 lung
[31] = system: NCI-H522 lung
[32] = system: NCI/ADR-RES ovarian
[33] = system: OVCAR-3 ovarian
[34] = system: OVCAR-4 ovarian
[35] = system: OVCAR-5 ovarian
[36] = system: OVCAR-8 ovarian
[37] = system: PC-3 prostate
[38] = system: RPMI-8226 leukemia
[39] = system: RXF 393 renal
[40] = system: SF-295 CNS
[41] = system: SF-539 CNS
[42] = system: SK-MEL-2 melanoma
[43] = system: SK-MEL-28 melanoma
[44] = system: SK-MEL-5 melanoma
[45] = system: SK-OV-3 ovarian
[46] = system: SN12C renal
[47] = system: SNB-19 CNS
[48] = system: SNB-75 CNS
[49] = system: SR leukemia
[50] = system: SW-620 colon
[51] = system: T-47D breast
[52] = system: TK-10 renal
[53] = system: U251 CNS
[54] = system: UACC-257 melanoma
[55] = system: UO-31 renal
[56] = system: HCC-2998 colon
[57] = system: SF-268 CNS
[58] = system: UACC-62 melanoma

Measured: TGI

O=C(O)CCC(N=NNc1ccc(-c2nc3ccccc3[nH]2)cc1)C(=O)O (stereo not given)
73.2 µM: [40]
70.6 µM: [5]
> 100 µM: [1] | [2] | [3] | [4] | [6] | [7] | [8] | [9] | [10] | [11] | [12] | [13] | [14] | [15] | [16] | [17] | [18] | [19] | [20] | [21] | [22] | [23] | [24] | [25] | [26] | [27] | [28] | [29] | [30] | [31] | [32] | [33] | [34] | [35] | [36] | [37] | [38] | [39] | [41] | [42] | [43] | [44] | [45] | [46] | [47] | [48] | [49] | [50] | [51] | [52] | [53] | [54] | [55]

COc1ccc(N=NC(=Nc2ccc(Cl)cc2)c2ccc(N(CCC#N)CCC#N)cc2)cc1
> 100 µM: [1] | [2] | [3] | [4] | [6] | [8] | [9] | [10] | [56] | [11] | [12] | [14] | [16] | [17] | [18] | [19] | [20] | [22] | [23] | [24] | [25] | [26] | [28] | [29] | [30] | [32] | [33] | [34] | [35] | [36] | [37] | [38] | [39] | [57] | [40] | [41] | [43] | [44] | [45] | [46] | [47] | [48] | [49] | [50] | [52] | [53] | [55]
14.5 µM: [42]
78 µM: [51]
87.3 µM: [5]
54.1 µM: [58]
93 µM: [15]
64.7 µM: [54]
91.6 µM: [27]
45.3 µM: [31]
